{"source": "patent US11759445B2", "about": "“Use of Rivastigmine in preparation of anti-radiation medicament” (priority 2020, dated 2023)", "key": {"C57BL/6 mice": {"tested_on": "C57BL/6 mice", "experiment": "Survival of mice at a lethal dose (10 Gy whole body irradiation) after intraperitoneal medicament", "assay_type": "in vivo, mouse", "conditions": "for influence on the survival time of mice after receiving irradiation: i.p. half an hour before 10 Gy whole body irradiation", "text": "1.2.2 Experiment for Verifying the Survival Rate of Mice at a Lethal Dose\nMice were subjected to 10 Gy whole body irradiation with an X-ray biological irradiator in Department of Medicine having a dose rate of 1.5 Gy/min; and before irradiation, mice were intraperitoneally injected the medicament screened out via an in vitro experiment, and then continuously raised in a temporary storage room of the animal center after irradiation.\n4 to 6 week-age C57BL/6 mice were selected as experimental subjects, and divided into control groups and experimental groups, and subjected to 10 Gy whole body irradiation with a dose rate of 1.5 Gy/min; mice in the experimental subjects were respectively intraperitoneally injected the medicaments screened half an hour before irradiation, and the survival time was recorded after irradiation. Among the medicaments, water-soluble Don-H, Pra-C and DL-Pan are dissolved by normal saline, and others were dissolved by 5 g/100 mL DMSO+edible oil. The medicament was prepared into a stock solution having a corresponding concentration according to the volume that 20 g mice were intraperitoneally injected 100 μL medicament."}, "crypt stem cells Lgr5+": {"tested_on": "crypt stem cells Lgr5+", "experiment": "In vitro medicament screening experiment on crypt stem cells Lgr5+ of mice (GFP fluorescence after 10 Gy irradiation)", "assay_type": "cell-based", "conditions": "Mus musculus, light or radiation study, 240 h, 10 μM medicament, GFP fluorescence 10 d after irradiation, read-out: increment of the Lgr5+ stem cells compared with IR groups", "text": "1.2.1 In Vitro Medicament Screening Experiment on Crypt Stem Cells Lgr5^+ of Mice\n1) Lgr5-GFP mice were sacrificed by cervical dislocation, and enterocoelia was opened and the whole small intestine was taken out, and then the small intestine was put to a pre-cooled HBSS buffer solution to remove mesentery and adipose tissues as much as possible, and dissected longitudinally to wash out contents of the small intestine.\n2) Villi and contents inside the intestinal cavity were scraped by a glass slide, and then the remaining intestinal cavity was washed for once to twice.\n3) The whole small intestine was quickly cut into 5 mm intestinal segments.\n4) The intestinal segments were transferred to a 50 mL centrifugal tube, and 25 mL HBSS and 250 μL penicillin/streptomycin solution were added for incubation for 10 min at room temperature, and then the centrifugal tube was slightly inverted to mix evenly for 2-3 times.\n5) Supernatant was absorbed, and 10 mL new HBSS was added to wash the intestinal segments for 2-3 times till the final intestinal segments were cleaned thoroughly, then a 70 μm filter sieve was used for filtering to retain the remaining intestinal segments.\n6) The intestinal segments were transferred to a 50 mL centrifugal tube, and added to a 10 mL pre-blended digestive solution for incubation for 5 min at room temperature.\n7) The centrifugal tube was shaken violently or swirled for several seconds, and then a 70 μm filter sieve was used for filtering.\n8) The intestinal segments were transferred to a new 50 mL centrifugal tube, and a 10 mL digestive solution was added for incubation on ice for 30 min, and then the centrifugal tube was shaken violently or swirled for several seconds, and then a 70 μm filter sieve was used for filtering. A black 96-well plate was put on an incubator for preheating during the incubation on ice.\n9) The intestinal segments were transferred to a new 50 mL centrifugal tube, and 10 mL HBSS was added, then the centrifugal tube was shaken violently or swirled for several seconds, and a 70 μm filter sieve was used for filtering to retain filtrate.\n10) […] for 10 min at 4° C.\n11) Supernatant was removed, and crypt cells were precipitated and resuspended by a crypt cell culture solution, and then cell counting was performed microscopically.\n12) Cells were diluted by a ratio of the crypt cell culture solution to matrigel=1:1 (v/v), so as to ensure that per 10 μL of mixed liquor contained about 100 crypt cells.\n13) The preheated black 96-well plate was taken out, and 10 μL mixed liquor was added to the center of each well, and then the well plate was put to an incubator for 10 min at 37° C.\n14) After the matrigel was solidified, each medicament in Bioactive Compound Library (790 types) was diluted by a medium to a final concentration of 10 μM, and then 100 μL was added to per well.\n15) The 96-well plate was put on a multi-mode microplate reader to read fluorescence intensity under the conditions of excitation wavelength at 485 nm and emission wavelength at 528 nm, and to record the values on the same day.\n16) Crypt cells were irradiated with 10 Gy radiation, and the fluorescence intensity for consecutive 10 d after irradiation was recorded; afterwards, the background fluorescence intensity of a blank control was removed, and a fluorescence intensity curve was drawn; and the test results were shown in FIGS. 1-4.\nCrypt stem cells Lgr5^+ separated from Lgr5-GFP mice in vivo carried GFP fluorescence, and the change of the mean fluorescence intensity (MFI) represented the proliferation of crypt stem cells Lgr5*. […]"}}, "data": [{"smiles": "CC(C)(CO)C(O)C(=O)NCCCO", "note": "(racemic) [DL-Panthenol]", "values": [{"measurement": "influence on the survival time of mice after receiving irradiation", "setting": "C57BL/6 mice; dose not stated", "result": "no statistical significance"}, {"measurement": "fold induction at 10 µM", "setting": "crypt stem cells Lgr5+", "result": 3.5}]}, {"smiles": "C[C@H](CCC(=O)O)[C@H]1CC[C@H]2[C@@H]3C(=O)C[C@@H]4CC(=O)CC[C@]4(C)[C@H]3CC(=O)[C@]12C", "note": "[Dehydrocholic acid]", "values": [{"measurement": "survival time of the mice", "setting": "C57BL/6 mice; 10 mg/kg i.p. half an hour before 10 Gy whole body irradiation", "result": "did not improve the survival time"}, {"measurement": "survival time of the mice", "setting": "C57BL/6 mice; 20 mg/kg i.p. half an hour before 10 Gy whole body irradiation", "result": "did not improve the survival time"}, {"measurement": "extension of the death time of the mice", "setting": "C57BL/6 mice; 40 mg/kg i.p. half an hour before 10 Gy whole body irradiation, P<0.01", "result": 2, "unit": "days"}, {"measurement": "survival time of the mice", "setting": "C57BL/6 mice; 60 mg/kg i.p. half an hour before 10 Gy whole body irradiation", "result": "did not improve the survival time"}, {"measurement": "survival time of the mice", "setting": "C57BL/6 mice; 80 mg/kg i.p. half an hour before 10 Gy whole body irradiation", "result": "did not improve the survival time"}, {"measurement": "survival time of the mice", "setting": "C57BL/6 mice; 100 mg/kg i.p. half an hour before 10 Gy whole body irradiation", "result": "did not improve the survival time"}, {"measurement": "fold induction at 10 µM", "setting": "crypt stem cells Lgr5+", "result": 3.4}]}, {"smiles": "CCCOc1ccn2c(C(C)=O)cc(-c3ccccc3S(C)(=O)=O)c2c1", "note": "[GSK2801]", "values": [{"measurement": "influence on the survival time of mice after receiving irradiation", "setting": "C57BL/6 mice; dose not stated", "result": "no statistical significance"}, {"measurement": "fold induction at 10 µM", "setting": "crypt stem cells Lgr5+", "result": 14.7}]}, {"smiles": "CN1CCCCC1CCN1c2ccccc2Sc2ccc([S+](C)[O-])cc21", "note": "(stereo not drawn) [Mesoridazine Besylate]", "values": [{"measurement": "influence on the survival time of mice after receiving irradiation", "setting": "C57BL/6 mice; dose not stated", "result": "no statistical significance"}, {"measurement": "fold induction at 10 µM", "setting": "crypt stem cells Lgr5+", "result": 4.2}]}, {"smiles": "C[n+]1ccccc1/C=N/O", "note": "[Pralidoxime chloride]", "values": [{"measurement": "fold induction at 10 µM", "setting": "crypt stem cells Lgr5+", "result": 4.8}]}, {"smiles": "CCN(C)C(=O)Oc1cccc([C@H](C)N(C)C)c1", "note": "[Rivastigmine]", "values": [{"measurement": "survival of mice after 30 d", "setting": "C57BL/6 mice; 1 mg/kg i.p. before 10 Gy whole body irradiation", "result": "still survival mice after 30 d"}, {"measurement": "survival of mice after 30 d", "setting": "C57BL/6 mice; 2 mg/kg i.p. before 10 Gy whole body irradiation", "result": "still survival mice after 30 d"}, {"measurement": "survival rate", "setting": "C57BL/6 mice; 2 mg/kg i.p. before 10 Gy whole body irradiation, after 30 d, P<0.001 vs control group", "result": "greater than 40%"}, {"measurement": "survival rate of the mice", "setting": "C57BL/6 mice; intraperitoneally injected, 10 Gy whole body irradiation, 30 days post irradiation, dose not stated", "result": "greater than 40%"}, {"measurement": "fold induction at 10 µM", "setting": "crypt stem cells Lgr5+", "result": 14.2}]}, {"smiles": "N#C[C@@H]1C[C@@H]2C[C@@H]2N1C(=O)[C@@H](N)C12CC3CC(CC(O)(C3)C1)C2", "note": "[Saxagliptin hydrate]", "values": [{"measurement": "influence on the survival time of mice after receiving irradiation", "setting": "C57BL/6 mice; dose not stated", "result": "no statistical significance"}, {"measurement": "fold induction at 10 µM", "setting": "crypt stem cells Lgr5+", "result": 15.9}]}]}
